This is an account of results in US20150322051A1, “Macrocyclic picolinamides as fungicides” (Dow AgroSciences LLC, priority 2014, published 2015).

The subject of assay [1] is Puccinia triticina; synonym: Puccinia recondita f. sp. tritici (PUCCRT). As to the kind of experiment: Wheat brown rust (PUCCRT) whole-plant fungicidal test. It is filed as in vivo. Particulars: topical; for pest or weed control at 121.5 g/ha: low volume (track spray) application, 121.5 g/H; for pest or weed control at 100 ppm: high volume application.
In assay [2] the test system is Mycosphaerella graminicola; anamorph: Septoria tritici (SEPTTR). As to the kind of experiment: Leaf blotch of wheat (SEPTTR) whole-plant fungicidal test. The following applies: Zymoseptoria tritici, topical; for pest or weed control at 121.5 g/ha: low volume (track spray) application, 121.5 g/H; for pest or weed control at 100 ppm: high volume application. It is filed as in vivo.

[3] abbreviates: 24 h, 1 Day Protectant, read-out: Low Volume activity at 121.5 g/H PUCCRT 1DP (% disease control rating).
The mark [4] stands for this setting: 72 h, 3 Day Curative, read-out: Low Volume activity at 121.5 g/H PUCCRT 3DC (% disease control rating).
Setting [5] is: 24 h, 1 Day Protectant, read-out: Low Volume activity at 121.5 g/H SEPTTR 1DP (% disease control rating).
Setting [6] is: 72 h, 3 Day Curative, read-out: Low Volume activity at 121.5 g/H SEPTTR 3DC (% disease control rating).
Where [7] appears, read: 24 h, 1 Day Protectant, read-out: High Volume activity at 100 ppm PUCCRT 1DP (% disease control rating).
The mark [8] stands for this setting: 72 h, 3 Day Curative, read-out: High Volume activity at 100 ppm PUCCRT 3DC (% disease control rating).
Setting [9] is: 24 h, 1 Day Protectant, read-out: High Volume activity at 100 ppm SEPTTR 1DP (% disease control rating).
The mark [10] stands for this setting: 72 h, 3 Day Curative, read-out: High Volume activity at 100 ppm SEPTTR 3DC (% disease control rating).

Like-named read-outs stand apart in the source and are kept apart here.

Take `CCC[C@H]1CCC[C@H](NC(=O)c2nccc(OC)c2OC(C)=O)C(=O)O[C@@H](C)[C@@H]1c1ccccc1` [Compound 55]: the pest or weed control at 121.5 g/ha in assay [1] (setting [3]), in assay [1] (setting [4]), in assay [2] (setting [5]) and in assay [2] (setting [6]) was > 70% each time.

`COc1ccnc(C(=O)N[C@H]2CCC[C@H](CCCc3ccccc3)[C@@H](CC(C)C)[C@H](C)OC2=O)c1OC(C)=O` [Compound 56]: the pest or weed control at 121.5 g/ha in assay [1] (setting [3]) was > 70%; in assay [1] (setting [4]), < 70%; in assay [2] (setting [5]), > 70%; in assay [2] (setting [6]), < 70%.

For `COc1ccnc(C(=O)N[C@H]2CCC[C@H](CCCc3ccccc3)[C@@H](Cc3ccc(OC(F)(F)F)cc3)[C@H](C)OC2=O)c1OC(C)=O` [Compound 57], the pest or weed control at 121.5 g/ha in assay [1] (setting [3]), in assay [1] (setting [4]), in assay [2] (setting [5]) and in assay [2] (setting [6]) was < 70% each time.

`COc1ccnc(C(=O)N[C@H]2CCC[C@H](CCCc3ccccc3)[C@@H](Cc3ccc(OC(F)(F)F)cc3)[C@H](C)OC2=O)c1OC(=O)C(C)C` [Compound 58, 4-methoxy-2-(((3S,7S,8R,9S)-9-methyl-2-oxo-7-(3-phenylpropyl)-8-(4-(trifluoromethoxy)benzyl)oxonan-3-yl)carbamoyl)pyridin-3-yl isobutyrate]: the pest or weed control at 121.5 g/ha in assay [1] (setting [3]), in assay [1] (setting [4]), in assay [2] (setting [5]) and in assay [2] (setting [6]) was < 70% in each case.

Regarding `COc1ccnc(C(=O)N[C@H]2CCC[C@H](CCCc3ccccc3)[C@@H](Cc3ccc(OC(F)(F)F)cc3)[C@H](C)OC2=O)c1OCOC(C)=O` [Compound 59], the pest or weed control at 121.5 g/ha in assay [1] (setting [3]) was > 70%; in assay [1] (setting [4]) it was < 70%; in assay [2] (setting [5]), > 70%; in assay [2] (setting [6]), < 70%.

In the case of `COc1ccnc(C(=O)N[C@H]2CCC[C@H](CC3CC3)[C@@H](Cc3ccccc3)[C@H](C)OC2=O)c1OC(C)=O` [Compound 60], the pest or weed control at 121.5 g/ha in assay [1] (setting [3]), in assay [1] (setting [4]), in assay [2] (setting [5]) and in assay [2] (setting [6]) was > 70% in each case.

As to `COc1ccnc(C(=O)N[C@H]2CCC[C@H](CC3CC3)[C@@H](Cc3ccccc3)[C@H](C)OC2=O)c1OCOC(C)=O` [Compound 61], the pest or weed control at 121.5 g/ha in assay [1] (setting [3]), in assay [1] (setting [4]), in assay [2] (setting [5]) and in assay [2] (setting [6]) was > 70% throughout.

For the molecule `COc1ccnc(C(=O)N[C@H]2CCC[C@H](Cc3ccccc3)[C@@H](Cc3ccc(F)cc3)[C@H](C)OC2=O)c1OC(C)=O` [Compound 62], the pest or weed control at 121.5 g/ha in assay [1] (setting [3]) is > 70%; in assay [1] (setting [4]), < 70%; in assay [2] (setting [5]), > 70%; in assay [2] (setting [6]), > 70%.

Regarding `COc1ccnc(C(=O)N[C@H]2CCC[C@H](Cc3ccccc3)[C@@H](Cc3ccc(F)cc3)[C@H](C)OC2=O)c1OCOC(C)=O` [Compound 63], the pest or weed control at 121.5 g/ha is > 70% in assay [1] (setting [3]), < 70% in assay [1] (setting [4]), > 70% in assay [2] (setting [5]) and > 70% in assay [2] (setting [6]).

Turning to `COc1ccnc(C(=O)N[C@H]2CCC[C@H](Cc3ccccc3)[C@@H](Cc3ccc(F)cc3)[C@H](C)OC2=O)c1OCOC(=O)C(C)C` [Compound 64], the pest or weed control at 121.5 g/ha in assay [1] (setting [3]) was > 70%; in assay [1] (setting [4]), < 70%; in assay [2] (setting [5]), > 70%; in assay [2] (setting [6]), > 70%.

In the case of `COc1ccnc(C(=O)N[C@H]2CCC[C@H](Cc3ccc(C(F)(F)F)cc3)[C@@H](Cc3ccc(OC(F)(F)F)cc3)[C@H](C)OC2=O)c1OCOC(C)=O` [Compound 65], the pest or weed control at 121.5 g/ha in assay [1] (setting [3]), in assay [1] (setting [4]), in assay [2] (setting [5]) and in assay [2] (setting [6]) was < 70% throughout.

In the case of `CCOCC(=O)OCOc1c(OC)ccnc1C(=O)N[C@H]1CCC[C@H](Cc2ccc(C(F)(F)F)cc2)[C@@H](Cc2ccc(OC(F)(F)F)cc2)[C@H](C)OC1=O` [Compound 66], the pest or weed control at 121.5 g/ha in assay [1] (setting [3]), in assay [1] (setting [4]), in assay [2] (setting [5]) and in assay [2] (setting [6]) was < 70% throughout.

For `COc1ccnc(C(=O)N[C@H]2CCC[C@H](Cc3ccc(C(F)(F)F)cc3)[C@@H](Cc3ccc(OC(F)(F)F)cc3)[C@H](C)OC2=O)c1OC(C)=O` [Compound 67], the pest or weed control at 121.5 g/ha in assay [1] (setting [3]), in assay [1] (setting [4]), in assay [2] (setting [5]) and in assay [2] (setting [6]) was < 70% each time.

Turning to `COc1ccnc(C(=O)N[C@H]2CCC[C@H](Cc3ccccc3)[C@@H](Cc3ccc(OC(F)(F)F)cc3)[C@H](C)OC2=O)c1OCOC(C)=O` [Compound 68], the pest or weed control at 121.5 g/ha in assay [1] (setting [3]), in assay [1] (setting [4]), in assay [2] (setting [5]) and in assay [2] (setting [6]) was < 70% throughout.

As to `CCOCC(=O)OCOc1c(OC)ccnc1C(=O)N[C@H]1CCC[C@H](Cc2ccccc2)[C@@H](Cc2ccc(OC(F)(F)F)cc2)[C@H](C)OC1=O` [Compound 69], the pest or weed control at 121.5 g/ha in assay [1] (setting [3]) was < 70%; in assay [1] (setting [4]), < 70%; in assay [2] (setting [5]), > 70%; in assay [2] (setting [6]), < 70%.

As to `COc1ccnc(C(=O)N[C@H]2CCC[C@H](CCCc3ccccc3)[C@@H](Cc3ccccc3)[C@H](C)OC2=O)c1OCOC(C)=O` [Compound 70], the pest or weed control at 121.5 g/ha in assay [1] (setting [3]) was > 70%; in assay [1] (setting [4]), < 70%; in assay [2] (setting [5]) it was > 70%; in assay [2] (setting [6]), > 70%.

As for `CCCC[C@@H]1[C@@H](Cc2ccccc2)CCC[C@H](NC(=O)c2nccc(OC)c2O)C(=O)O[C@H]1C` [Compound 71, N-((3S,7R,8R,9S)-7-benzyl-8-butyl-9-methyl-2-oxooxonan-3-yl)-3-hydroxy-4-methoxypicolinamide], the pest or weed control at 100 ppm in assay [1] (setting [7]) was > 70%; in assay [1] (setting [8]) it was > 70%; in assay [2] (setting [9]), > 70%; in assay [2] (setting [10]), < 70%.

On to `CCCC[C@@H]1[C@@H](Cc2ccc(C(F)(F)F)cc2)CCC[C@H](NC(=O)c2nccc(OC)c2O)C(=O)O[C@H]1C` [Compound 72], for which the pest or weed control at 100 ppm in assay [1] (setting [7]) is > 70%; in assay [1] (setting [8]), < 70%; in assay [2] (setting [9]), > 70%; in assay [2] (setting [10]), < 70%.

On to `COc1ccnc(C(=O)N[C@H]2CCC[C@H](CCC(C)C)[C@@H](Cc3ccccc3)[C@H](C)OC2=O)c1O` [Compound 73], for which the pest or weed control at 100 ppm in assay [1] (setting [7]) is > 70%; in assay [1] (setting [8]) it was < 70%; in assay [2] (setting [9]), > 70%; in assay [2] (setting [10]), > 70%.

Consider `COc1ccnc(C(=O)N[C@H]2CCC[C@H](Cc3ccccc3)[C@@H](Cc3ccccc3)[C@H](C)OC2=O)c1O` [Compound 74], for which the pest or weed control at 100 ppm in assay [1] (setting [7]), in assay [1] (setting [8]), in assay [2] (setting [9]) and in assay [2] (setting [10]) was > 70% throughout.

As for `COc1ccnc(C(=O)N[C@H]2CCC[C@H](Cc3ccccc3)[C@@H](C3CCCC3)[C@H](C)OC2=O)c1O` [Compound 75], the pest or weed control at 100 ppm in assay [1] (setting [7]) is > 70%; in assay [1] (setting [8]), < 70%; in assay [2] (setting [9]), > 70%; in assay [2] (setting [10]), > 70%.

For the molecule `COc1ccnc(C(=O)N[C@H]2CCC[C@H](Cc3ccc(Cl)cc3)[C@@H](CC(C)C)[C@H](C)OC2=O)c1O` [Compound 76], the pest or weed control at 100 ppm in assay [1] (setting [7]) is > 70%; in assay [1] (setting [8]) it was < 70%; in assay [2] (setting [9]), > 70%; in assay [2] (setting [10]), > 70%.

`COc1ccnc(C(=O)N[C@H]2CCC[C@H](Cc3ccccc3)[C@@H](CCc3ccccc3)[C@H](C)OC2=O)c1O` [Compound 78]: the pest or weed control at 100 ppm in assay [1] (setting [7]) was > 70%; in assay [1] (setting [8]) it was < 70%; in assay [2] (setting [9]) it was > 70%; in assay [2] (setting [10]), > 70%.

Regarding `COc1ccnc(C(=O)N[C@H]2CCC[C@H](Cc3ccc(Cl)cc3)[C@@H](Cc3ccccc3)[C@H](C)OC2=O)c1O` [Compound 79], the pest or weed control at 100 ppm in assay [1] (setting [7]) is > 70%; in assay [1] (setting [8]), < 70%; in assay [2] (setting [9]) it was > 70%; in assay [2] (setting [10]) it was < 70%.

Regarding `COc1ccnc(C(=O)N[C@H]2CCC[C@H](Cc3ccc(C(F)(F)F)cc3)[C@@H](CC(C)C)[C@H](C)OC2=O)c1O` [Compound 80], the pest or weed control at 100 ppm in assay [1] (setting [7]) was > 70%; in assay [1] (setting [8]), < 70%; in assay [2] (setting [9]), > 70%; in assay [2] (setting [10]), < 70%.
